In ChEMBL document CHEMBL1130737, “Inhibitors of acyl-CoA:cholesterol O-acyltransferase (ACAT) as hypocholesterolemic agents: synthesis and structure-activity relationships of novel series of sulfonamides, acylphosphonamides and acylphosphoramidates” (Bioorg Med Chem Lett, 1998):

Tests used:
Rattus norvegicus [1] = test: In vivo percent change in plasma cholesterol level was measured at a dose of 30 mg/Kg in rat and expressed as deltaTC; p < 0.01; type: functional
Rattus norvegicus [2] = test: In vivo percent change in plasma cholesterol level was measured at a dose of 30 mg/Kg in rat and expressed as deltaTC; p < 0.05; type: functional
[3] = biological target: T1, Acyl-CoA:cholesterol acyltransferase (Oryctolagus cuniculus, UniProt Q95214); test: In vitro inhibition of ACAT by incubation with [1-14C]oleolyl-CoA and intestinal microsomes isolated from cholesterol-fed rabbits.; design: species or system Intestine
T1 sequence (Q95214 whole entry): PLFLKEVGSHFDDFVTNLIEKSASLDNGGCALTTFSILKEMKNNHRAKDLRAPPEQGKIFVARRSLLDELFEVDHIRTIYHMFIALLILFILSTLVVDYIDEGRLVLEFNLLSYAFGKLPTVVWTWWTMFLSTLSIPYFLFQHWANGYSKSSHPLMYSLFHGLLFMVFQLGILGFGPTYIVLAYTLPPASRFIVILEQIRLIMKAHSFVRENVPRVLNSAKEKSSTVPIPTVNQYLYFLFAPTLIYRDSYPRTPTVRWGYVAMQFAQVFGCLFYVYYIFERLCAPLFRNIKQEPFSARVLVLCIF

Rattus norvegicus [4] = test: In vivo percent change in plasma cholesterol level was measured at a dose of 10 mg/Kg in rat and expressed as deltaTC; not significant; type: functional
Rattus norvegicus [5] = test: In vivo percent change in plasma cholesterol level was measured at a dose of 1 mg/Kg in rat and expressed as deltaTC; not significant; type: functional
Rattus norvegicus [6] = test: In vivo percent change in plasma cholesterol level was measured at a dose of 30 mg/Kg in rat and expressed as deltaTC; not significant; type: functional
Rattus norvegicus [7] = test: In vivo percent change in plasma cholesterol level was measured at a dose of 30 mg/Kg in rat and expressed as deltaTC; p < 0.001; type: functional
Rattus norvegicus [8] = test: In vivo percent change in plasma cholesterol level was measured at a dose of 1 mg/Kg in rat and expressed as deltaTC; p < 0.05; type: functional

SMILES	IC50 [3] [µM]	DeltaTC (Rattus norvegicus [1]) [%]	further results
CCCCCCCCCCCCCCOC(=O)CS(=O)(=O)Nc1c(C(C)C)cccc1C(C)C		-45	
CC(C)c1cccc(C(C)C)c1NS(=O)(=O)CC(=O)N(Cc1ccccc1)C(C)C	0.15	-31	
COP(=O)(Cc1c(C(C)C)cccc1C(C)C)NC(=O)Cc1c(C(C)C)cc(C(C)C)cc1C(C)C (stereo not drawn)	1.2		DeltaTC (Rattus norvegicus [4]): -2%
COP(=O)(NC(=O)Cc1c(C(C)C)cc(C(C)C)cc1C(C)C)Oc1c(C(C)C)cc(Cl)cc1C(C)C (stereo not drawn)	> 5		DeltaTC (Rattus norvegicus [5]): -12%
CC(C)c1cccc(C(C)C)c1NS(=O)(=O)CC(=O)Oc1c(C(C)C)cccc1C(C)C	> 1		
CC(C)c1cccc(C(C)C)c1OC(=O)[N-]S(=O)(=O)Oc1c(C(C)C)cccc1C(C)C.[Na+]	5.2	-74	
COP(=O)(Cc1c(C(C)C)cc(C(C)C)cc1C(C)C)NC(=O)Cc1c(C(C)C)cccc1C(C)C (stereo not drawn)	0.29		
COP(=O)(NC(=O)Cc1c(C(C)C)cc(C(C)C)cc1C(C)C)Oc1c(C(C)C)cccc1C(C)C (stereo not drawn)	4.8		
CC(C)c1cccc(C(C)C)c1NS(=O)(=O)CC(=O)NCC1(c2ccccc2)CCCC1	> 1		
CC(C)c1cccc(C(C)C)c1NC(=O)CS(=O)(=O)Nc1c(C(C)C)cccc1C(C)C	0.35		DeltaTC (Rattus norvegicus [7]): -51%
COP(=O)(Cc1c(C(C)C)cc(C(C)C)cc1C(C)C)NC(=O)Cc1c(C(C)C)cc(C(C)C)cc1C(C)C (stereo not drawn)	0.74		DeltaTC (Rattus norvegicus [4]): -17%
CC(C)c1cc(C(C)C)c(OC(=O)CS(=O)(=O)Nc2c(C(C)C)cccc2C(C)C)c(C(C)C)c1	2.8		DeltaTC (Rattus norvegicus [6]): -19%
COc1cc(OC)c(OC(=O)CS(=O)(=O)Nc2c(C(C)C)cccc2C(C)C)c(OC)c1	> 1		DeltaTC (Rattus norvegicus [6]): -6%
CC(C)c1cc(C(C)C)c(CC(=O)NP(=O)(Oc2c(C(C)C)cccc2C(C)C)c2ccccc2)c(C(C)C)c1 (stereo not drawn)	2.5		DeltaTC (Rattus norvegicus [8]): -25%
CC(C)c1cc(C(C)C)c(NS(=O)(=O)CC(=O)Oc2c(C(C)C)cccc2C(C)C)c(C(C)C)c1	> 1	-29	
CCCCCCCCCCCCOC(=O)CS(=O)(=O)Nc1c(C(C)C)cccc1C(C)C		-34	
CC(C)c1cccc(C(C)C)c1NS(=O)(=O)CC(=O)Sc1c(C(C)C)cccc1C(C)C	> 50		DeltaTC (Rattus norvegicus [6]): -16%
CCCCCCCCN(CCCCCCCC)C(=O)CS(=O)(=O)Nc1c(C(C)C)cccc1C(C)C			DeltaTC (Rattus norvegicus [6]): -19%
CC(C)c1cc(C(C)C)c(CC(=O)NS(=O)(=O)Oc2c(C(C)C)cccc2C(C)C)c(C(C)C)c1 [AVASIMIBE]	12	-73	

The next lines start with results.

IC50 [3] [µM]	SMILES	DeltaTC (Rattus norvegicus [1]) [%]	further results
> 1	CCCCCCCCCCOC(=O)CS(=O)(=O)Nc1c(C(C)C)cccc1C(C)C		DeltaTC (Rattus norvegicus [2]): -16%
0.007	CC(C)c1cccc(C(C)C)c1NC(=O)CS(=O)(=O)Oc1c(C(C)C)cccc1C(C)C	-42	
1.8	CC(C)c1cccc(C(C)C)c1OS(=O)(=O)CC(=O)NC(c1ccccc1)c1ccccc1	-43	
1	CCCCCCSC(=O)CS(=O)(=O)Nc1c(C(C)C)cccc1C(C)C		
3	CCCCCCCCCCCCNC(=O)CS(=O)(=O)Oc1c(C(C)C)cccc1C(C)C		DeltaTC (Rattus norvegicus [6]): -3%
> 1	CCCCCCCCOC(=O)CS(=O)(=O)Nc1c(C(C)C)cccc1C(C)C		DeltaTC (Rattus norvegicus [6]): -4%
0.073	CCCCCCCCCCCCSC(=O)CS(=O)(=O)Nc1c(C(C)C)cccc1C(C)C	-71	
0.007	CC(C)c1cc(C(C)C)c(OS(=O)(=O)CC(=O)Nc2c(C(C)C)cccc2C(C)C)c(C(C)C)c1	-60	
> 1	CCCCCCOC(=O)CS(=O)(=O)Nc1c(C(C)C)cccc1C(C)C		DeltaTC (Rattus norvegicus [6]): -5%
0.32	CCCCCCCCCCCCNC(=O)CS(=O)(=O)Nc1c(C(C)C)cccc1C(C)C	-29	
> 1	CCOC(=O)CS(=O)(=O)Nc1c(C(C)C)cccc1C(C)C		DeltaTC (Rattus norvegicus [6]): 2%
0.13	CCCCCCCCCCSC(=O)CS(=O)(=O)Nc1c(C(C)C)cccc1C(C)C		
0.15	CCCCCCCCSC(=O)CS(=O)(=O)Nc1c(C(C)C)cccc1C(C)C		DeltaTC (Rattus norvegicus [2]): -32%
> 5	CCCCCCNC(=O)CS(=O)(=O)Nc1c(C(C)C)cccc1C(C)C		DeltaTC (Rattus norvegicus [2]): -16%
0.036	CCCCCCCCCCCCCCSC(=O)CS(=O)(=O)Nc1c(C(C)C)cccc1C(C)C	-23	
> 5	CCCCCCCCCCCCCCCCCCSC(=O)CS(=O)(=O)Nc1c(C(C)C)cccc1C(C)C		DeltaTC (Rattus norvegicus [6]): -35%
0.021	CCCCCCCCCCCCC(C)OC(=O)CS(=O)(=O)Nc1c(C(C)C)cccc1C(C)C (stereo not drawn)		DeltaTC (Rattus norvegicus [7]): -39%
